What all share (assay): inhibition of tumour cell growth, NCI panel, 48 h
Assay [1] concerns A549 NSCLC.
Assay [2] deals with EKVX NSCLC.
Assay [3] concerns HCT-15 colon.
In assay [4] the test system is HOP-62 NSCLC.
In assay [5] the test system is HOP-92 NSCLC.
In assay [6] the test system is HS 578T breast.
Assay [7] deals with IGROV1 ovarian.
In assay [8] the test system is KM12 colon.
For assay [9], the system named is LOX IMVI melanoma.
The subject of assay [10] is MDA-MB-435.
Assay [11] deals with NCI-H226 lung.
Assay [12] deals with PC-3 prostate.
Assay [13] concerns RPMI-8226 leukemia.
The subject of assay [14] is SF-539 CNS.
For assay [15], the system named is SN12C renal.
For assay [16], the system named is SW-620 colon.
The test system of assay [17] is U251 CNS.

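How tested: cells in 96-well plates exposed to compound for 48 hours at five concentrations. GI50 is the concentration that inhibits growth by half. The concentration for full growth arrest is given as TGI.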

16 molecules from PubChem BioAssay (NCI) can be followed below.

In the case of `COc1ccc(P2(=S)SP(=S)(c3ccc(Cl)cc3)S2)cc1` (stereo unspecified), the TGI in [1], in [2], in [3], in assay [4], in assay [5] and in assay [6] was over 100 µM each time. Besides, the TGI in [7], in [8], in assay [9], in assay [10], in assay [11] and in [12] was over 100 µM each time. Further, the TGI in [13], in assay [14], in [15], in assay [16] and in assay [17] was over 100 µM in each case.
As to `C[N+](C)(C)/N=C/c1ccc(O)c(O)c1`, the TGI in [1], in [2], in assay [3], in assay [4], in assay [5] and in assay [6] was over 100 µM each time. For the same molecule, the TGI in [7], in assay [8], in [9], in assay [10], in assay [11] and in [12] was over 100 µM in each case. The TGI in assay [13], in assay [14], in assay [15], in assay [16] and in [17] was over 100 µM throughout.
In the case of `CN(C)CC1CCC/C(=C\c2ccc(OC(=O)/C=C/c3ccccc3)cc2)C1=O` (stereo unspecified), the TGI in assay [1] turned out to be 8.4 µM; in [2] it was 4.89 µM; in [3] it was 3.14 µM; in assay [4], 10.6 µM; in assay [5] it was 4.65 µM; in assay [6] it was 13.1 µM. In addition, the TGI in [7] came to 14 µM; in assay [8], 3.44 µM; in assay [9], 1.7 µM; in assay [10], 7.37 µM; in [11], 9.54 µM; in assay [12], 19.5 µM. For the same molecule, the TGI in assay [13] turned out to be 6.88 µM; in [14], 3.76 µM; in [15], 4.43 µM; in assay [16] it was 4.94 µM; in assay [17], 3.84 µM.
`CN(C)c1ccc(-c2c(C#N)c(O)n(NS(=O)(=O)c3ccccc3)c(=O)c2C#N)cc1`: the TGI in [1], in assay [2], in [3], in [4], in assay [5] and in [6] was over 100 µM throughout. Also, the TGI in assay [7], in assay [8], in [9], in assay [10], in [11] and in assay [12] was over 100 µM in each case. Moreover, the TGI in [13], in [14], in assay [15], in assay [16] and in [17] was over 100 µM each time.
Regarding `COc1cccc(C2ON=C(c3ccccc3)N2C23CC4CC(CC(C4)C2)C3)c1` (stereo unspecified), the TGI in assay [1], in assay [2], in assay [3], in [4], in assay [5] and in assay [6] was over 10 µM in each case. For the same molecule, the TGI in assay [7], in assay [8], in assay [9], in [10], in [11] and in assay [12] was over 10 µM each time. For the same molecule, the TGI in assay [13], in assay [14], in [15], in assay [16] and in [17] was over 10 µM in each case.
As for `CC(=O)Oc1c2c(c(CC=C(C)C)c3c1C(=O)C1=C[C@@H]4CC5C(C)(C)OC(C/C=C(/C)C(=O)O)(C4=O)[C@@]15O3)OC(C)(CCC=C(C)C)C=C2` (stereo partly specified), the TGI in assay [1] amounted to 0.999 µM; in assay [2] it was 0.839 µM; in assay [3] it was 0.978 µM; in assay [4], 1.88 µM; in assay [5] it was 1.05 µM; in assay [6] it was 1.44 µM. Also, the TGI in [7] stood at 0.294 µM; in [8], 0.897 µM; in assay [9] it was 0.247 µM; in [10] it was 0.348 µM; in assay [11], 0.834 µM; in assay [12] it was 1.24 µM. Besides, the TGI in assay [13] is 0.538 µM; in assay [14], 0.252 µM; in assay [15], 0.53 µM; in assay [16] it was 0.241 µM; in [17] it was 0.339 µM.
Take `Cc1c(/C=N/NC(=S)Nc2ccccc2)c(=O)n(-c2ccccc2)n1C`: the TGI in assay [2], in [3], in assay [4], in assay [5], in assay [6] and in [7] was over 100 µM in each case. The TGI in assay [8], in [9], in [10], in assay [11], in assay [12] and in assay [13] was over 100 µM each time. Besides, the TGI in assay [14], in [16] and in assay [17] was over 100 µM each time.
Turning to `CCOC(=O)NC(C(=O)OCC)(N1CCN(c2cc3c(cc2F)c(=O)c(C(=O)O)cn3CC)CC1)C(F)(F)F` (stereo unspecified), the TGI was over 100 µM in assay [1]; 56.9 µM in assay [2]; over 100 µM in [3]; over 100 µM in [4]; over 100 µM in assay [5]; over 100 µM in assay [6]. Further, the TGI in assay [7], in assay [8], in assay [9], in [10], in assay [11] and in assay [12] was over 100 µM throughout. Moreover, the TGI in [13], in assay [14], in assay [15], in assay [16] and in [17] was over 100 µM in each case.
In the case of `COc1cc(C(=O)C2C(=O)c3ccccc3C2C2(O)c3ccccc3CC2C(O)c2cc(OC)c(OC)c(OC)c2)cc(OC)c1OC` (stereo unspecified), the TGI in assay [1], in [2], in [3], in assay [4], in assay [5] and in assay [6] was over 100 µM each time. Besides, the TGI in [7], in assay [8], in [9], in assay [10], in [11] and in [12] was over 100 µM throughout. For the same molecule, the TGI in [13] is 84.4 µM; in assay [14] it was over 100 µM; in assay [15] it was over 100 µM; in assay [16] it was over 100 µM; in assay [17], over 100 µM.
As for `Cn1cc(S(=O)(=O)NC(=O)Nc2ccc(Cl)cc2)c2ccccc21`, the TGI was over 100 µM in assay [1]; over 100 µM in assay [2]; 20.7 µM in [3]; over 100 µM in [4]; over 100 µM in [5]; over 100 µM in assay [6]. The TGI in [7], in assay [8], in assay [9], in assay [10], in assay [11] and in assay [12] was over 100 µM throughout. In addition, the TGI in assay [13], in assay [14], in [15], in assay [16] and in assay [17] was over 100 µM each time.
For `Cc1ccc(C2N=C(N)NC3=C2CCOc2c3ccc3ccccc23)cc1` (stereo unspecified), the TGI in assay [1] is over 64.6 µM; in assay [2], over 55.1 µM; in assay [3], over 60.1 µM; in assay [4], 35.1 µM; in [5] it was 57.5 µM; in assay [6], 67.7 µM. Besides, the TGI is over 100 µM in assay [7]; over 51.1 µM in assay [8]; 38.9 µM in [9]; over 23.4 µM in [10]; over 88.4 µM in [11]; over 75 µM in [12]. Moreover, the TGI in [13] was over 63.2 µM; in assay [14], 44.7 µM; in assay [15], over 72 µM; in assay [16], over 100 µM; in [17] it was over 66.9 µM. Besides, the results for the GI50 in assay [7], in assay [9] and in assay [11] were 44.6 µM, 9.98 µM and 28.1 µM, respectively.
Consider `CC(C)COC(=O)OC(=O)c1ccc(N(C)Cc2cnc3nc(N)nc(N)c3n2)cc1`, for which the TGI in [1], in assay [2], in assay [3], in [4], in [5] and in assay [6] was over 100 µM in each case. Also, the TGI in [7], in [8], in assay [9], in assay [10], in assay [11] and in assay [12] was over 100 µM each time. The TGI is over 100 µM in assay [13]; over 51.8 µM in [14]; over 100 µM in assay [15]; over 100 µM in assay [16]; over 100 µM in assay [17].
With `O=C(OC[C@H]1C[C@H]2C(=O)CCC[C@H]2O1)c1ccccc1`, the TGI in [1], in assay [2], in assay [3], in [4], in [5] and in [6] was over 100 µM throughout. Moreover, the TGI in [7], in assay [8], in [9], in [10], in assay [11] and in assay [12] was over 100 µM in each case. Moreover, the TGI in [13], in assay [14], in assay [15], in assay [16] and in assay [17] was over 100 µM each time.
For the molecule `CCN1C(=O)/C(=C2\SC(c3ccccc3)(c3ccccc3)c3ccccc32)SC1=S`, the TGI was over 100 µM in assay [1]; over 100 µM in assay [2]; over 100 µM in [3]; 68.1 µM in [4]; 82.4 µM in [5]; over 100 µM in assay [6]. The TGI in assay [7], in assay [8], in [9], in [10], in assay [11] and in [12] was over 100 µM in each case. Also, the TGI in assay [13], in [14], in [15] and in assay [17] was over 100 µM each time.
With `O=C(Nc1nc(C23CC4CC(CC(C4)C2)C3)cs1)c1cc2cc(Cl)ccc2oc1=O`, the TGI in assay [1], in assay [2], in assay [3], in assay [4], in assay [5] and in assay [6] was over 100 µM each time. For the same molecule, the TGI in assay [7], in [8], in assay [9], in [10], in assay [11] and in assay [12] was over 100 µM each time. Also, the TGI in assay [13], in assay [14], in [15], in assay [16] and in assay [17] was over 100 µM in each case.
As for `O=C1C(Cl)C2(CC(/C=C/c3ccccc3O)=NN2c2cccc(S(=O)(=O)O)c2)N1c1nc2ccccc2s1` (stereo unspecified), the TGI in [1] was 82.5 µM; in assay [2], 45.8 µM; in [3] it was 44.6 µM; in assay [5], 37 µM; in assay [6], over 100 µM; in assay [7], 31.2 µM. In addition, the TGI is 30.3 µM in assay [8]; 24.7 µM in assay [9]; 31.1 µM in [10]; 51.2 µM in assay [11]; over 100 µM in assay [12]; 35.5 µM in [13]. For the same molecule, the TGI in [14] was 36.5 µM; in assay [15], 27.8 µM; in assay [16] it was 42.9 µM; in assay [17], 46.9 µM.
